Here are results for one substance from EP4755393A1, “USE OF PROTON PUMP REGULATOR IN PREPARATION OF DRUG” (Shanghai Quietd Biotechnology Co., Ltd., priority 2023, dated 2025).

For assay [1], the system named is Male SD rats. The note with it: rat, in vivo.
The next assay concerns HT22 cells. Put plainly: Quantitative detection of ROS (DCFH-DA) in the oxygen-glucose deprivation (OGD) cell model. It is filed as cell-based, Mouse. The settings on record: OGD 16 h, 24 h reoxygenation, OGD plus vehicle = 100%, mean ± standard deviation. On the procedure: Cell culture: Mouse hippocampal HT22 cells were cultured in DMEM and 10% serum at 37°C in a 5% CO2 incubator.
Oxygen-glucose deprivation (OGD) cell model: HT22 cells were seeded at a density of about 1 ×10^5 into 96-well plates and cultured for 24 h in a 37°C incubator with 5% CO2/95% air in DMEM and 10% serum. After placing HT22 cells in glucose-free medium, they were transferred to a sealed container containing a 5% CO2/95% N2 mixture and incubated at 37°C for 16 h. The glucose-free medium was then replaced with a normal medium containing glucose, and the mixture was incubated for 24 h in a 37°C incubator containing 5% CO2/95% air for reoxygenation.
Experimental grouping: Normally cultured HT22 cells were used as the control group. HT22 cells subjected to OGD were reoxygenated in normal culture medium and treated separately with vehicle, QD202 (0.1 µM, 1 µM, 5 µM), and the ROS scavenger edaravone (200 µM). After 24 h of reoxygenation, quantitative detection of ROS was performed.
Quantitative detection of ROS: Reactive oxygen species were detected using the Beyotime reactive oxygen species detection kit and the fluorescent probe DCFH-DA. DCFH-DA was diluted 1:1000 with serum-free culture medium to a final concentration of 10 µM. The culture medium was removed and the diluted DCFH-DA was added. The cells were then incubated in a 37°C cell culture incubator for 20 min. The cells were washed three times with serum-free cell culture medium to thoroughly remove any DCFH-DA that had not entered the cells. Observation was performed under a fluorescence microscope, followed by quantification of the average fluorescence intensity using Image J software.
Data analysis: Three parallel experiments were performed. The average fluorescence intensity of the OGD plus vehicle group was set as the standard value of 100% for normalization of the fluorescence intensity of cells in each group. Data were expressed as mean ± standard deviation, and […] tests were performed on the data of each group using One-Way ANOVA.

The test system of assay [2] is Male SD rats. The settings on record: rat, in vivo. The source holds these as a separate data set.
The test system of a further assay is DIR protein. The experiment in a line: Co-immunoprecipitation of QD202-Biotin peptide with Flag-His-DIR (HEK 293 lysate, western blot and dot blot). It is filed as binding, human. The note with it: QD202-Biotin peptide added to lysate of Flag-His-DIR transfected HEK 293; anti-Biotin IP; FIG. 14. On the procedure:
The Flag-His-DIR expression plasmid was transfected into HEK 293, and cell proteins were extracted 48 h after transfection. Table 2: Plasmid sequences
Protein extraction was performed using Pierce RIPA lysis buffer, 1000 µL of Pierce RIPA lysis buffer containing protease inhibitors was added. Cells were collected and transferred to a clean 1.5 mL EP tube using a cell scraper. After mixing for 1 h on a rotary mixer at 4°C, the cells were centrifuged at 13,000 rpm at 4°C for 10 min to remove cell debris. The supernatant of the cell lysate was divided into two aliquots, each 500 µL, and 10 µL of QD202-Biotin peptide at a concentration of 1 mM was added to one aliquot. From each of the two aliquots, 30 µL of the supernatant was taken and mixed with 10 µL of 4× loading buffer. The mixture was boiled at 100°C for 5 min and then stored frozen at -20°C. For the remaining 470 µL of protein lysate, 2 µL of the antibody (Anti-Biotin, Vector, sp-3000) was added; the mixture was incubated overnight (about 16-18 h) on a rotary shaker at 4°C. 30 µL of Protein G Sepharose beads (Roche, 11243233001) were placed in an EP tube and washed three times with Pierce RIPA lysis buffer. […] The protein was detected by Western blot and dot blot methods (DYKDDDDK-Tag (3B9) mAb, Abmart, M20008; Anti-Biotin, Vector, sp-3000).
Background: A western blot detects proteins with antibodies after separation by electrophoresis.

The test system of the next assay is APP/PS1 transgenic mice. Put plainly: Morris water maze test in AD mice. It is filed as in vivo. The note with it: continuously for 1 week.

Entries after “also recorded” stand apart in the source; their conditions may differ. Ends that are not written are not given here.

As for “QD202: Polypeptide synthesized according to the amino acid sequence set forth in SEQ ID NO: 1; ATP6V1B2 regulator / DIR regulator (YGRKKRRQRRRSPVDVVCS; not fully specified)”, in the assay with Male SD rats [1], the infarct volume entry is listed as “lower than that of the Model + QD202 placebo group, with a statistical difference (p<0.05); also recorded: lower than that of the Model + QD202 placebo group, with extremely significant statistical differences (p<0.001)”. Besides, the “inhibition rate of ROS” value in the assay with HT22 cells (0.1 µM) is given as 17.55±12.95%; in the assay on HT22 cells (1 µM) it was 60.63±8.27%; in the assay on HT22 cells (5 µM) it was 70.09±2.84%. Further, the neurobehavioral score entry with Male SD rats [2] is listed as “lower than that of the Model + QD202 placebo group with a statistical difference (p<0.05); also recorded: lower than that of the Model + QD202 placebo group with extremely significant statistical differences (p<0.001)”. In the assay on DIR protein, the “binding to the DIR protein (co-immunoprecipitation)” value is listed as “can bind”. Also, in the assay on APP/PS1 transgenic mice (intragastric, 6.25 mg/kg, ten-month-old APP/PS1 mice, FIG. 10), the “learning and cognitive functions in the water maze behavior” value is “obvious improvement of learning and cognitive functions”. Further, in the assay on APP/PS1 transgenic mice (intravenous injection, 1.25 mg/kg, APP/PS1 mice of 10 months old, FIG. 12), the “learning and cognitive functions in water maze behavior” value is “obvious improvement on learning and cognitive functions”.
